From patent US20110269812A1, “NOVEL BENZYLIDENE-INDOLINONE AND THEIR MEDICAL AND DIAGNOSTIC USES” (Agency for Science, Technology and Research, priority 2008, published 2011) come the findings set out here.

Where two headings read alike, the source gives them in different places.

Assay [1] has as its target T1, EGFR (Homo sapiens, UniProt P00533).
T1 construct: Cells treated similarly were immunoprecipitated with anti-EGFR, anti-EphA2 and anti-Tyro3; endogenous in cells; host or cells: HuH7
In kind it is cell-based.

A further assay has as its system AFP. Briefly: AFP transcription in HuH7 by quantitative real-time PCR. The format is cell-based, human. The note with it: HuH7, 10 μM, 24 h, normalized against 18S mRNA. (In qPCR the cycle at which signal appears reflects the starting amount.)
In a further assay the target is T2, Tyro3 (Homo sapiens, UniProt Q06418).
T2 construct: we examined the constitutively phosphorylated IGF-1R, EphA2 and Tyro3; endogenous in cells; host or cells: HuH7
T2 sequence (Q06418 41-890): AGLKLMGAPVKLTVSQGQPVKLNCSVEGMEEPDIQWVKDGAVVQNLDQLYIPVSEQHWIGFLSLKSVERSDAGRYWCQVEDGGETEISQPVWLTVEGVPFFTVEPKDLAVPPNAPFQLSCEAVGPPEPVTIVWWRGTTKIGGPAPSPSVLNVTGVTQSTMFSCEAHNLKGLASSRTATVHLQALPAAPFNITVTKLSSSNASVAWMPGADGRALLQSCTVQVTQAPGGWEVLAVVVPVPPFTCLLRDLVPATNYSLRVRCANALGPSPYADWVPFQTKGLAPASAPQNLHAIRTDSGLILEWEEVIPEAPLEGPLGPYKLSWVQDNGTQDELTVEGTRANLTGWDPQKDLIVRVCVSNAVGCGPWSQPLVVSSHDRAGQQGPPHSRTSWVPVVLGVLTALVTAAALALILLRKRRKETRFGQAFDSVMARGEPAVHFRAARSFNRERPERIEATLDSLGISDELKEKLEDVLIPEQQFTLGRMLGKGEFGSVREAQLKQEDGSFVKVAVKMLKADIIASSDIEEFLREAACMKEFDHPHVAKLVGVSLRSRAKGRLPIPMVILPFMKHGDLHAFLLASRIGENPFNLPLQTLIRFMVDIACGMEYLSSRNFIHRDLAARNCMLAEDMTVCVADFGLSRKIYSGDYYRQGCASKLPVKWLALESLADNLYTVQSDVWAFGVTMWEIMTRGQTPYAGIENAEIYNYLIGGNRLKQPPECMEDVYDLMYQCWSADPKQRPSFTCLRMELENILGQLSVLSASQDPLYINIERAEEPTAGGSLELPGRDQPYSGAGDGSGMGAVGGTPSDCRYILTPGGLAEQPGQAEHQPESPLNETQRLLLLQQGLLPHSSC
Briefly: Immunoprecipitation / anti-phosphotyrosine blot of Tyro3 in HuH7. In kind it is cell-based. The conditions noted are these: HuH7, 24 h; Compound 47 1, 5 or 10 μM, sunitinib 10 μM.

Assay [2] deals with T3, IGF-1R (Homo sapiens, UniProt P08069).
T3 construct: we examined the constitutively phosphorylated IGF-1R, EphA2 and Tyro3; endogenous in cells; host or cells: HuH7
T3 sequence (P08069 31-1367): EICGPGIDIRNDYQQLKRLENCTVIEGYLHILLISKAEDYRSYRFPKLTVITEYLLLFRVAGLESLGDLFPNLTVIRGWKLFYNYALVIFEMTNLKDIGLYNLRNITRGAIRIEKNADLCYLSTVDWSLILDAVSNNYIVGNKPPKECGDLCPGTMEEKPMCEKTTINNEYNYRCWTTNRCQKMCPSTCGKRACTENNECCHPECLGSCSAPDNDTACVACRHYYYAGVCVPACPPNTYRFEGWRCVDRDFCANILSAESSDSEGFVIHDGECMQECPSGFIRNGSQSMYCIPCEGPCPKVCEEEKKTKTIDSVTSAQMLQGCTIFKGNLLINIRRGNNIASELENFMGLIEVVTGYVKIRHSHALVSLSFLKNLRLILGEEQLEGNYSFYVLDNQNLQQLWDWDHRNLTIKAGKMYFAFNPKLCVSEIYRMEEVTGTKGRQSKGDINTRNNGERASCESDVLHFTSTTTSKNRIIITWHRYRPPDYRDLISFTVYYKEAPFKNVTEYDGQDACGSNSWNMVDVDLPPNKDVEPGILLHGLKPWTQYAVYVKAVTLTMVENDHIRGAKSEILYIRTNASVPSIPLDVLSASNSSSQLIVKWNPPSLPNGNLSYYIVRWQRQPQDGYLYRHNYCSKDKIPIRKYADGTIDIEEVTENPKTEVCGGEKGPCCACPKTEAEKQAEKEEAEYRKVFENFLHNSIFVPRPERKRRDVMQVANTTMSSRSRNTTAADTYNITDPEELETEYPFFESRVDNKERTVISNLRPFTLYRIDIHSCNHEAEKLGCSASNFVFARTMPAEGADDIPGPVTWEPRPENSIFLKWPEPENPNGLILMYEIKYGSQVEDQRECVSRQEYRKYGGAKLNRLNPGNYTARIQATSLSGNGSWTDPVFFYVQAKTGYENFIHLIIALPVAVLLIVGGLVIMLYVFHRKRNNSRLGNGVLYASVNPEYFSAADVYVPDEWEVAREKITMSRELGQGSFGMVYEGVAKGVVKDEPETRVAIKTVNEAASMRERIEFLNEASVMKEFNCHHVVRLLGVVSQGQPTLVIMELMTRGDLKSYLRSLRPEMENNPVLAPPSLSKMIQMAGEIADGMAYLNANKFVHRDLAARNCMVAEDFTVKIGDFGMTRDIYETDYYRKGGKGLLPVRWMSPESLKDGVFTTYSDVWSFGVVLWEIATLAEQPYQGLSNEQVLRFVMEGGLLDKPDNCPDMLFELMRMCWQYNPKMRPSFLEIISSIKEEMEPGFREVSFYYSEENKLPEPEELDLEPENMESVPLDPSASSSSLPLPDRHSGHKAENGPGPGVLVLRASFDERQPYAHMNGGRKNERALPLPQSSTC
Briefly: Immunoblot of phospho-IGF-1R in HuH7. The conditions noted are these: HuH7, 24 h; Compound 47 1, 5 or 10 μM, sunitinib 10 μM. The format is cell-based.

Assay [3] addresses T1, EGFR. The format is cell-based. The note with it: 24 h, untreated 0.15. As to the method: (§1) Kinase phosphorylation changes were determined with human phospho-RTK array.
(§2) Cells harvesting, hybridization with RTK array and incubation with anti-phosphotyrosine were performed according to manufacturer's instruction. Imaging and quantification of the spots intensities was with Fujifilm LAS-3000 (Tokyo, Japan). Average signal of the duplicate spots for each RTK was determined.

The target of the next assay is T4, Insulin R (Homo sapiens, UniProt P06213).
T4 construct: endogenous in cells; host or cells: HuH7
T4 sequence (P06213 28-1382): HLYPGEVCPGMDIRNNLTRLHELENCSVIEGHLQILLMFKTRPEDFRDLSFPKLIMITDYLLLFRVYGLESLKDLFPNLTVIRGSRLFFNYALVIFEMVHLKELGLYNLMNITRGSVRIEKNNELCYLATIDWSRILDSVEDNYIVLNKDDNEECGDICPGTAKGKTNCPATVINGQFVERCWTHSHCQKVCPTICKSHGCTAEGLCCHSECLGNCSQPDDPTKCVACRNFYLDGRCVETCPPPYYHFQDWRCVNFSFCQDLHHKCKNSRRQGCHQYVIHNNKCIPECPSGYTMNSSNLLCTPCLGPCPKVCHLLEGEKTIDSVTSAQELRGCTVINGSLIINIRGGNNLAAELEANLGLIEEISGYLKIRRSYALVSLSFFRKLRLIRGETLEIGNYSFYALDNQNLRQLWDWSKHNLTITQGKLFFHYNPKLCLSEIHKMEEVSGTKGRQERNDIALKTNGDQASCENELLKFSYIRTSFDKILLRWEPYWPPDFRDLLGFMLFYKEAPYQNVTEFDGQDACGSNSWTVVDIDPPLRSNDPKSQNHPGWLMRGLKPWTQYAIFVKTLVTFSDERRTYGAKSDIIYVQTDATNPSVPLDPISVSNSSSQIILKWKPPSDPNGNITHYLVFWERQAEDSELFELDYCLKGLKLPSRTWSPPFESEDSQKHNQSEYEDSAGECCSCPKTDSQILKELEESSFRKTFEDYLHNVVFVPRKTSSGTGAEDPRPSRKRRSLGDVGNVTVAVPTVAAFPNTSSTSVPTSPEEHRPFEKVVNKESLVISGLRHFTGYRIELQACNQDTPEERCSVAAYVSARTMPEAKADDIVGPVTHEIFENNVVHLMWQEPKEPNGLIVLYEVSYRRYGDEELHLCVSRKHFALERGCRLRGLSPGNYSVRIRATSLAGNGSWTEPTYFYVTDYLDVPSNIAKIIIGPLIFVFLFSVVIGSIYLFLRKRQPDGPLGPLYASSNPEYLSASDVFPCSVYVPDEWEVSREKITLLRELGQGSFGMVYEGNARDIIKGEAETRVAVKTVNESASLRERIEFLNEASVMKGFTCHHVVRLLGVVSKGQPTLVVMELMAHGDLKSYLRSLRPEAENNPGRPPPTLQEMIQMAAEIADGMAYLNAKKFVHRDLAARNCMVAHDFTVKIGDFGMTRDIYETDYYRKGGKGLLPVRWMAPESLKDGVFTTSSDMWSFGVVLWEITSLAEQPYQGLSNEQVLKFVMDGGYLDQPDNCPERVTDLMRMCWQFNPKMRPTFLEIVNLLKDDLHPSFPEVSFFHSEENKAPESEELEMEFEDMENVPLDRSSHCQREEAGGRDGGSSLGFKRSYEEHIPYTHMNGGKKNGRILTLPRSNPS
Briefly: Human phospho-RTK array, HuH7: Insulin R. The conditions noted are these: 24 h, untreated 0.74. In kind it is cell-based. As to the method:
as §1, §2

In another assay the target is T5, Ron (Homo sapiens, UniProt Q04912).
T5 construct: endogenous in cells; host or cells: HuH7
T5 sequence (Q04912 25-1400): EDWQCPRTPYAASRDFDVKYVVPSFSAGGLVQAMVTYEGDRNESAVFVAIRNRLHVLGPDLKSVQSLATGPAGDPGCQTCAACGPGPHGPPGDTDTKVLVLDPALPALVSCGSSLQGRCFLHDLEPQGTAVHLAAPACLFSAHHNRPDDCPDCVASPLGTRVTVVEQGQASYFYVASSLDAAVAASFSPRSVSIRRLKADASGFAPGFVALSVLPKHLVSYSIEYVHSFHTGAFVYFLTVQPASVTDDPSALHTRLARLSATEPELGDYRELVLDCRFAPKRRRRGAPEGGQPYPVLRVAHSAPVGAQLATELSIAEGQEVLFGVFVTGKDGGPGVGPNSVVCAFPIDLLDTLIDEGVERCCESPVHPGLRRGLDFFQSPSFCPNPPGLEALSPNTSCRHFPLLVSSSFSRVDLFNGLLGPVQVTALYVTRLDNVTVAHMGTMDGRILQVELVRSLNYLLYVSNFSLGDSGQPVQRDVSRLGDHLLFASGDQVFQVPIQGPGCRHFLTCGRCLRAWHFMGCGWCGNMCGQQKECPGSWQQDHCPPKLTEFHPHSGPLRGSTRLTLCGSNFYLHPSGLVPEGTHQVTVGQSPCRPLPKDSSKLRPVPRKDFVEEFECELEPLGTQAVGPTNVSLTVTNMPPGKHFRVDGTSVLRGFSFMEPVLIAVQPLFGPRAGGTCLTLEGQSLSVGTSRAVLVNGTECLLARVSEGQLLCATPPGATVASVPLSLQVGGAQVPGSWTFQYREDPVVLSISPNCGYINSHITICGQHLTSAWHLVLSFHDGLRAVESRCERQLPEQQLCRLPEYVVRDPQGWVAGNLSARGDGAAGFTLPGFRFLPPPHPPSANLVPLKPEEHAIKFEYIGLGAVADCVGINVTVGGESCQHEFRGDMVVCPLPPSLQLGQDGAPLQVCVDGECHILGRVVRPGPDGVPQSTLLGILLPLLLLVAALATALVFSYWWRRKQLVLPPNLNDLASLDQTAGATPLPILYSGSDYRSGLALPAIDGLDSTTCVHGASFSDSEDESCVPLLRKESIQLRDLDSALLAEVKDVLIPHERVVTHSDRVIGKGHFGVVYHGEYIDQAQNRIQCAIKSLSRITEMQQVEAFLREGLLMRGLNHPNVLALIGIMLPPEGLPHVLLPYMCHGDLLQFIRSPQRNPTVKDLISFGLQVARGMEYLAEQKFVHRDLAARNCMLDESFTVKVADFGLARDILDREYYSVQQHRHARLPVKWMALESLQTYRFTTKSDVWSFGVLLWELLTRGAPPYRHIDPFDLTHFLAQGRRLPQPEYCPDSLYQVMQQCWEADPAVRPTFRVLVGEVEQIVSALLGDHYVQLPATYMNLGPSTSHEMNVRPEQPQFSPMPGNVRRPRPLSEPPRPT
The experiment in a line: Human phospho-RTK array, HuH7: Ron. In kind it is cell-based. The conditions noted are these: 24 h, untreated 0.04. As to the method: as §1, §2

Assay [4] concerns the target T3, IGF-1R. The experiment in a line: Human phospho-RTK array, HuH7: IGF-1R. The format is cell-based. The note with it: 24 h, untreated 0.19. As to the method: as §1, §2
The target of another assay is T6, EphA2 (Homo sapiens, UniProt P29317).
T6 construct: we examined the constitutively phosphorylated IGF-1R, EphA2 and Tyro3; endogenous in cells; host or cells: HuH7
T6 sequence (P29317 24-976): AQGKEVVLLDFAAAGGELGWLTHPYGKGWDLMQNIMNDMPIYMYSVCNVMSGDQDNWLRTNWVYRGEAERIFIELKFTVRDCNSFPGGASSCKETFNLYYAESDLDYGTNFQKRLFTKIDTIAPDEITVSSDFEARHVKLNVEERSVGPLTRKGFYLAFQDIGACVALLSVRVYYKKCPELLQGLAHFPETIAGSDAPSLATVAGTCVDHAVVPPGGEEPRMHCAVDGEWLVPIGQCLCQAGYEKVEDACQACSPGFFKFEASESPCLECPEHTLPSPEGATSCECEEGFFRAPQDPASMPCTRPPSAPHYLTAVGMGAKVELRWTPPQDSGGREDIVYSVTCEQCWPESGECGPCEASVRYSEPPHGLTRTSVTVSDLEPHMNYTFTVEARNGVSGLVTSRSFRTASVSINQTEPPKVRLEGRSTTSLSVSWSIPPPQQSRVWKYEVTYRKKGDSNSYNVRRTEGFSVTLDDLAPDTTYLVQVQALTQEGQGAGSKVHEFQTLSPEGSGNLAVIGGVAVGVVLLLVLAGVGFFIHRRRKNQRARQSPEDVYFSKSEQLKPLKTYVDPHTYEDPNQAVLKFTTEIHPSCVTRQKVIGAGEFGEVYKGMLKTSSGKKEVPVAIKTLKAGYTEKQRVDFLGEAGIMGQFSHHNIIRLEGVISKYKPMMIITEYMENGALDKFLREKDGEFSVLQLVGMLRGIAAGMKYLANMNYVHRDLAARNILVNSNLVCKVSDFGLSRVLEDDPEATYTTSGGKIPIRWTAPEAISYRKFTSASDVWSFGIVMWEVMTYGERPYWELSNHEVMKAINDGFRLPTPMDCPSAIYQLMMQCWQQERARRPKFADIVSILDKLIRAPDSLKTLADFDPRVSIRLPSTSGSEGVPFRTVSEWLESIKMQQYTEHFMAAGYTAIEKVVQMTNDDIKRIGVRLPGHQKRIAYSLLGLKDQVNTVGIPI
The experiment in a line: Human phospho-RTK array, HuH7: EphA2. The format is cell-based. The note with it: 24 h, untreated 0.07. As to the method: as §1, §2

For the molecule `O=C1Nc2cc(Cl)ccc2/C1=C\c1cccc(C(F)(F)F)c1` [Compound 47, (E)-6-Chloro-3-(3-(trifluoromethyl)benzylidene)indolin-2-one], the “EGFR phosphorylation by immunoblot” value on EGFR [1] is “unexpected increase”. The “AFP transcript vs untreated controls” value in the assay with AFP is “significantly repressed to one-third”. Moreover, at Tyro3, the “Tyro3 phosphorylation by immunoblot” value was “inhibited even at the lowest concentration used (1 μM)”. For the same molecule, on IGF-1R [2], the “IGF-1R phosphorylation (Y980 and Y1135/1136) by immunoblot” value is given as “proportional reduction”. Also, the “EGFR Phosphorylation” value was 0.19 Arbitrary units at EGFR [3] (serum starved HuH7, 1 μM); 0.44 Arbitrary units on EGFR [3] (serum starved HuH7, 5 μM); 0.53 Arbitrary units on EGFR [3] (serum starved HuH7, 10 μM). The “Insulin R Phosphorylation” value was determined as 0.75 Arbitrary units on Insulin R (serum starved HuH7, 1 μM); 0.4 Arbitrary units on Insulin R (serum starved HuH7, 5 μM); 0.38 Arbitrary units at Insulin R (serum starved HuH7, 10 μM). Besides, the “Ron Phosphorylation” value is given as 0.06 Arbitrary units at Ron (serum starved HuH7, 1 μM); 0.05 Arbitrary units at Ron (serum starved HuH7, 5 μM); 0.03 Arbitrary units at Ron (serum starved HuH7, 10 μM). In addition, the “IGF-1R Phosphorylation” value at IGF-1R [4] (serum starved HuH7, 1 μM) is 0.22 Arbitrary units; on IGF-1R [4] (serum starved HuH7, 5 μM), 0.13 Arbitrary units; on IGF-1R [4] (serum starved HuH7, 10 μM) it was 0.07 Arbitrary units. In addition, the “EphA2 Phosphorylation” value on EphA2 (serum starved HuH7, 1 μM) was 0.09 Arbitrary units; at EphA2 (serum starved HuH7, 5 μM), 0.05 Arbitrary units; on EphA2 (serum starved HuH7, 10 μM), 0.02 Arbitrary units.
